In ChEMBL document CHEMBL5678804 (Cancer Cell, 2011):
Activity calls are given as the source filed them. The rule behind the calls is not given here.

Columns and labels:
[1] = biological target: Tyrosine-protein kinase ABL1 (Homo sapiens, UniProt P00519); experiment: Inhibition of human N-terminal his tagged native ABL1 (229 to 499 residues) expressed in Sf9 cells using ABLtide as substrate preincubated for 2 hrs followed by ATP addition and measured every 2 mins for […] by spectrophotometric analysis
[2] = biological target: Tyrosine-protein kinase ABL1 (Homo sapiens, UniProt P00519, T315I); experiment: Inhibition of human ABL1 T315I mutant (229 to 499 residues) using ABLtide as substrate preincubated for 2 hrs followed by ATP addition and measured every 2 mins for […] by spectrophotometric analysis
Crk-like protein = Crk-like protein (Mus musculus, UniProt P47941, T315I); experiment: Inhibition of CrkL in mouse BaF3 cells harbouring BCR-ABL1 T315I mutant measured after 6 hrs by immunoblotting analysis; assay type: cell-based
Crk-like protein, sequence (P47941 whole entry, looked up, stated change not applied): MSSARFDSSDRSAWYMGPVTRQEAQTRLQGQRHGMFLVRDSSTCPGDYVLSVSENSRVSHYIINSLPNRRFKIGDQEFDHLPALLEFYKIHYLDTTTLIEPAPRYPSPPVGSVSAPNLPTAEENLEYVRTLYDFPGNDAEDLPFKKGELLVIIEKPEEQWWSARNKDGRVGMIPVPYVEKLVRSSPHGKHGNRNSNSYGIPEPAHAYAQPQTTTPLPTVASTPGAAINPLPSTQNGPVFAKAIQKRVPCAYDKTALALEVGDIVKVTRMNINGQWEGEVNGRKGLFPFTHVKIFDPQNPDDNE

BaF3 [3] = experiment: cells; settings: Mus musculus, BaF3, 72 h
BaF3 [4] = experiment: cells; settings: Mus musculus, BaF3, 72 h; remark: listed apart in the source
BaF3 [5] = experiment: cells; settings: Mus musculus, BaF3, 72 h; remark: listed apart in the source
BaF3 [6] = experiment: cells; settings: Mus musculus, BaF3, 72 h; remark: listed apart in the source
BaF3 [7] = experiment: cells; settings: Mus musculus, BaF3, 72 h; remark: listed apart in the source
BaF3 [8] = experiment: cells; settings: Mus musculus, BaF3, 72 h; remark: listed apart in the source
BaF3 [9] = experiment: cells; settings: Mus musculus, BaF3, 72 h; remark: listed apart in the source
BaF3 [10] = experiment: cells; settings: Mus musculus, BaF3, 72 h; remark: listed apart in the source
BaF3 [11] = experiment: cells; settings: Mus musculus, BaF3, 72 h; remark: listed apart in the source
BaF3 [12] = experiment: cells; settings: Mus musculus, BaF3, 72 h; remark: listed apart in the source
BaF3 [13] = experiment: cells; settings: Mus musculus, BaF3, 72 h; remark: listed apart in the source
BaF3 [14] = experiment: cells; settings: Mus musculus, BaF3, 72 h; remark: listed apart in the source
BaF3 [15] = experiment: cells; settings: Mus musculus, BaF3, 72 h; remark: listed apart in the source
BaF3 [16] = experiment: cells; settings: Mus musculus, BaF3, 72 h; remark: listed apart in the source
BaF3 [17] = experiment: cells; settings: Mus musculus, BaF3, 72 h; remark: listed apart in the source
BaF3 [18] = experiment: Antitumor activity against mouse BaF3 cells harbouring BCR-ABL1 T315I mutant xenografted in Balb/c mouse model assessed as prolongation of animal survival at 100 mg/kg, po administered twice daily for 21 days; assay type: functional, organism-based; settings: time 21.0 day
BaF3 [19] = experiment: cells; settings: Mus musculus, BaF3, 72 h; remark: listed apart in the source

Which results are given for `CC(C)(C)c1cc(NC(=O)Nc2cccc(Cl)c2Cl)n(-c2ccc3c(c2)C[C@@H](C(=O)O)NC3)n1`?
IC50 [1]: 57 nM; IC50 [2]: 773 nM

With `CNC(=O)c1cc(Oc2ccc(NC(=O)Nc3cc(C(C)(C)C)nn3C)c(F)c2)ccn1` as the molecule, how does the IC50 [1] read?
Its IC50 is 88 nM.

What about the IC50 [2] of the same molecule?
Its IC50 is 80 nM.

Which results are given for `CNC(=O)c1cc(Oc2ccc(NC(=O)Nc3cc(C(C)(C)C)nn3-c3ccc4c(c3)CCNC4)c(F)c2)ccn1`?
IC50 [1]: 9 nM; IC50 [2]: 17 nM

How did the IC50 [2] turn out when `CC(C)(C)c1cc(NC(=O)Nc2cccc(Cl)c2Cl)n(-c2ccc3ncccc3c2)n1` was run?
The IC50 was 711 nM.

`Cc1nc(Nc2ncc(C(=O)Nc3c(C)cccc3Cl)s2)cc(N2CCN(CCO)CC2)n1` [DASATINIB ANHYDROUS] was tested. Which IC50 (Crk-like protein) did it give?
The IC50 was greater than 5000 nM.

What about the IC50 (BaF3 [3]) of the same molecule?
Its IC50 is 3800 nM.

And the IC50 (BaF3 [4])?
Its IC50 is 0.4 nM.

And the IC50 (BaF3 [5])?
The IC50 was 7.3 nM.

What about the IC50 (BaF3 [6]) of the same molecule?
Its IC50 is 2.8 nM.

And the IC50 (BaF3 [7])?
The IC50 was 0.3 nM.

What about the IC50 (BaF3 [8]) of the same molecule?
Its IC50 is 2 nM.

And the IC50 (BaF3 [9])?
The IC50 was 1 nM.

And the IC50 (BaF3 [10])?
Its IC50 is 8 nM.

What about the IC50 (BaF3 [11]) of the same molecule?
Its IC50 is 2 nM.

And the IC50 (BaF3 [12])?
Its IC50 is 8 nM.

And the IC50 (BaF3 [13])?
Its IC50 is 65 nM.

What about the IC50 (BaF3 [14]) of the same molecule?
The IC50 was 2.3 nM.

And the IC50 (BaF3 [15])?
The IC50 was 1.1 nM.

What about the IC50 (BaF3 [16]) of the same molecule?
Its IC50 is 2.7 nM.

And the IC50 (BaF3 [17])?
The IC50 was 1.2 nM.

For `Cc1ccc(NC(=O)c2ccc(CN3CCN(C)CC3)cc2)cc1Nc1nccc(-c2cccnc2)n1` [IMATINIB], which Activity (BaF3 [18]) is on record?
The Activity was “inactive”.

For `Cc1cn(-c2cc(NC(=O)c3ccc(C)c(Nc4nccc(-c5cccnc5)n4)c3)cc(C(F)(F)F)c2)cn1` [NILOTINIB], which IC50 (Crk-like protein) is on record?
The IC50 was greater than 5000 nM.

What about the IC50 (BaF3 [3]) of the same molecule?
The IC50 was 9500 nM.

What about the IC50 (BaF3 [11]) of the same molecule?
The IC50 was 95 nM.

Which results are given for `Cc1cc(Nc2cc(N3CCN(C)CC3)nc(Sc3ccc(NC(=O)C4CC4)cc3)n2)n[nH]1` [TOZASERTIB]?
IC50 (BaF3 [4]): 104 nM; IC50 (BaF3 [5]): 110 nM; IC50 (BaF3 [6]): 180 nM; IC50 (BaF3 [7]): 130 nM; IC50 (BaF3 [8]): 80 nM; IC50 (BaF3 [9]): 190 nM; IC50 (BaF3 [10]): 84 nM; IC50 (BaF3 [11]): 190 nM; IC50 (BaF3 [12]): 200 nM; IC50 (BaF3 [13]): 88 nM; IC50 (BaF3 [19]): 74 nM; IC50 (BaF3 [14]): 84 nM; IC50 (BaF3 [15]): 65 nM; IC50 (BaF3 [16]): 130 nM; IC50 (BaF3 [17]): 160 nM
